SMILES strings stand for the structures. Values joined by “and” are separate entries in the source; they are usually repeats but may differ in a detail not shown here. Identical values can stand only once. Toxic doses and inconclusive results are not listed.

The experiment has as its system P388 leukemia ip, CD2F1 mice, survival T/C. Put plainly: NCI In Vivo Anticancer Drug Screen. Data for tumor model P388 Leukemia (intraperitoneal) in CD2F1 (CDF1) mice. To be noted: endpoint: median survival time, higher = longer survival. A digest of the protocol:
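Mice carrying the transplanted tumor received test compound or vehicle. Survival was recorded in each group, and the value is the treated-group measurement divided by that of the vehicle-treated control group.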

Setting [1] is: dose: 25.0 mg/kg/injection, schedule: Q01DX009 (ip), vehicle: saline with Tween-80.
[2] abbreviates: dose: 50.0 mg/kg/injection, schedule: Q01DX009 (ip), vehicle: saline with Tween-80.
The mark [3] stands for this setting: dose: 25.0 mg/kg/injection, schedule: Q01DX005 (ip), vehicle: Klucel (hydroxypropylcellulose) (HPC).
[4] abbreviates: dose: 50.0 mg/kg/injection, schedule: Q01DX005 (ip), vehicle: Klucel (hydroxypropylcellulose) (HPC).
[5] abbreviates: dose: 60.0 mg/kg/injection, schedule: Q01DX005 (ip), vehicle: saline with Tween-80.
[6] abbreviates: dose: 120.0 mg/kg/injection, schedule: Q01DX005 (ip), vehicle: saline with Tween-80.
Where [7] appears, read: dose: 240.0 mg/kg/injection, schedule: Q01DX005 (ip), vehicle: saline with Tween-80.

In the case of `Nc1cn(C2OC(CO)C(O)C2O)c(=O)[nH]c1=O` (stereo not drawn), the T/C was 95 % of control under setting [1] and 92 % of control under setting [2].
Regarding `c1ccc2c(SCCCCCSc3c4ccccc4nc4ccccc34)c3ccccc3nc2c1`, the T/C was 97 % of control (dose: 60.0 mg/kg/injection, schedule: Q01DX005 (ip), vehicle: Klucel (hydroxypropylcellulose) (HPC)); 89 % of control (dose: 120.0 mg/kg/injection, schedule: Q01DX005 (ip), vehicle: Klucel (hydroxypropylcellulose) (HPC)); 88 % of control (dose: 240.0 mg/kg/injection, schedule: Q01DX005 (ip), vehicle: Klucel (hydroxypropylcellulose) (HPC)).
Turning to `CCCCNCC(O)c1cc2c(Cl)cc(Cl)cc2c2cc(C(F)(F)F)ccc12` (stereo not drawn), the T/C was 98 % of control (dose: 6.25 mg/kg/injection, schedule: Q01DX009 (ip), vehicle: saline with Tween-80); 106 % of control (dose: 12.5 mg/kg/injection, schedule: Q01DX009 (ip), vehicle: saline with Tween-80); 102 % of control under setting [1].
For the compound `Nc1nc(-c2ccccc2N=NN2CCN(N=Nc3ccccc3-c3nc(N)c4ccccc4n3)CC2)nc2ccccc12`, the T/C (dose: 0.78 mg/kg/injection, schedule: Q01DX009 (ip), vehicle: Klucel (hydroxypropylcellulose) (HPC)) is 104 % of control; the T/C (dose: 1.56 mg/kg/injection, schedule: Q01DX009 (ip), vehicle: Klucel (hydroxypropylcellulose) (HPC)) is 102 % of control; the T/C (dose: 3.12 mg/kg/injection, schedule: Q01DX009 (ip), vehicle: Klucel (hydroxypropylcellulose) (HPC)) is 95 % of control; the T/C (dose: 6.25 mg/kg/injection, schedule: Q01DX009 (ip), vehicle: Klucel (hydroxypropylcellulose) (HPC)) was 100 % of control.
Turning to `CCN(CC)CCNc1cc2ccccc2c2sc3ccccc3c(=O)c12`, the T/C by setting is: (dose: 25.0 mg/kg/injection, schedule: Q01DX005 (ip), vehicle: distilled water + Tween-80) 102 % of control; (dose: 50.0 mg/kg/injection, schedule: Q01DX005 (ip), vehicle: distilled water + Tween-80) 103 % of control.
As to `c1ccc(Cn2nnnc2-c2ccccc2)cc1`, the T/C was 100 % of control (dose: 100.0 mg/kg/injection, schedule: Q04DX003 (ip), vehicle: saline with Tween-80); 96 % of control (dose: 200.0 mg/kg/injection, schedule: Q04DX003 (ip), vehicle: saline with Tween-80); 88 % of control (dose: 400.0 mg/kg/injection, schedule: Q04DX003 (ip), vehicle: saline with Tween-80).
As for `CC(C)(C)c1cc(C#CC#Cc2cc(C(C)(C)C)cc(C(C)(C)C)c2)cc(C(C)(C)C)c1`, the T/C was 86 % of control under setting [3] and 86 % of control under setting [4].
As for `COc1ccc(-n2c(N)c(C#N)c3c(c2=S)CCC3)cc1`, the T/C was 106 % of control (dose: 50.0 mg/kg/injection, schedule: Q01DX005 (ip), vehicle: Klucel + Tween-80); 99 % of control (dose: 100.0 mg/kg/injection, schedule: Q01DX005 (ip), vehicle: Klucel + Tween-80); 92 % of control (dose: 200.0 mg/kg/injection, schedule: Q01DX005 (ip), vehicle: Klucel + Tween-80).
On to `O=C(Nc1ccc(Cl)cc1)Nc1nnc(COc2ccccc2)o1`, for which the T/C is 90 % of control (dose: 15.0 mg/kg/injection, schedule: Q01DX005 (ip), vehicle: saline with Tween-80); 88 % of control (dose: 30.0 mg/kg/injection, schedule: Q01DX005 (ip), vehicle: saline with Tween-80); 89 % of control and 90 % of control under setting [5]; 90 % of control under setting [6]; 87 % of control under setting [7].
In the case of `COC(=O)c1[nH]c(=O)c(C#N)c(C(=O)OC)c1C(=O)/C=C/c1ccccc1`, the T/C is 100 % of control under setting [5], 96 % of control under setting [6] and 90 % of control under setting [7].
`O=C1CCCC2=C1C1(OC3C=CC=CN23)C(=O)c2ccccc2C1=O` (stereo not drawn): the T/C was 103 % of control (dose: 50.0 mg/kg/injection, schedule: Q01DX005 (ip), vehicle: saline with Tween-80); 97 % of control (dose: 100.0 mg/kg/injection, schedule: Q01DX005 (ip), vehicle: saline with Tween-80); 92 % of control (dose: 200.0 mg/kg/injection, schedule: Q01DX005 (ip), vehicle: saline with Tween-80).
Regarding `C=C(C)CBr`, the T/C reads like this: under setting [5], 100 % of control; under setting [6], 100 % of control; under setting [7], 100 % of control.
As for `COc1cccc2c1C(=O)c1c(O)c3c(c(O)c1C2=O)CC(O)(C(=O)C(C)C)CC3OC1CC(N)C(O)C(C)O1` (stereo not drawn), the T/C (dose: 3.13 mg/kg/injection, schedule: Q01DX009 (ip), vehicle: water) was 117 % of control; the T/C (dose: 4.7 mg/kg/injection, schedule: Q04DX003 (ip), vehicle: water) is 115 % of control; the T/C (dose: 6.25 mg/kg/injection, schedule: Q01DX009 (ip), vehicle: water) is 117 % of control; the T/C (dose: 9.4 mg/kg/injection, schedule: Q04DX003 (ip), vehicle: water) was 110 % of control; the T/C (dose: 18.8 mg/kg/injection, schedule: Q04DX003 (ip), vehicle: water) is 101 % of control; the T/C (dose: 75.0 mg/kg/injection, schedule: Q04DX003 (ip), vehicle: water) is 92 % of control.
In the case of `C[n+]1ccc(NC(=O)c2ccc(NC(=O)c3cccc(C(=O)Nc4ccc(C(=O)Nc5cc[n+](C)cc5)cc4)c3)cc2)cc1`, the T/C runs as follows: (dose: 6.25 mg/kg/injection, schedule: Q04DX003 (ip), vehicle: saline with Tween-80) 112 % of control; (dose: 12.5 mg/kg/injection, schedule: Q04DX003 (ip), vehicle: saline with Tween-80) 120 % of control; under setting [1], 159 % of control; under setting [2], 195 % of control; (dose: 50.0 mg/kg/injection, schedule: Q04DX003 (ip), vehicle: saline with Tween-80) 154 % of control; (dose: 66.0 mg/kg/injection, schedule: Q04DX003 (ip), vehicle: saline with Tween-80) 170 % of control.
With `Cc1cc(C)n(C2=NC3(C)NC(=O)NC3(C)N2)n1` (stereo not drawn), the T/C (dose: 50.0 mg/kg/injection, schedule: Q04DX002 (ip), vehicle: saline with Tween-80) was 98 % of control; the T/C (dose: 100.0 mg/kg/injection, schedule: Q04DX002 (ip), vehicle: saline with Tween-80) is 94 % of control; the T/C (dose: 200.0 mg/kg/injection, schedule: Q04DX002 (ip), vehicle: saline with Tween-80) is 98 % of control.
In the case of `O=C(Nc1ccccc1)C1(c2ccccc2)CCCCC1`, the T/C is, setting by setting: under setting [3], 101 % of control; under setting [4], 99 % of control; (dose: 100.0 mg/kg/injection, schedule: Q01DX005 (ip), vehicle: Klucel (hydroxypropylcellulose) (HPC)) 100 % of control; (dose: 200.0 mg/kg/injection, schedule: Q01DX005 (ip), vehicle: Klucel (hydroxypropylcellulose) (HPC)) 93 % of control.
With `CN(C(=O)C(Cl)Cl)c1ccc(-c2csc(-c3ccccc3)n2)cc1`, the T/C runs as follows: (dose: 100.0 mg/kg/injection, schedule: Q04DX003 (ip), vehicle: Klucel (hydroxypropylcellulose) (HPC)) 100 % of control; (dose: 200.0 mg/kg/injection, schedule: Q04DX003 (ip), vehicle: Klucel (hydroxypropylcellulose) (HPC)) 97 % of control; (dose: 400.0 mg/kg/injection, schedule: Q04DX003 (ip), vehicle: Klucel (hydroxypropylcellulose) (HPC)) 91 % of control.
